The record followed here is patent US9150546B2, “Triazine derivative and pharmaceutical composition comprising the same” (SHIONOGI & CO., LTD., priority 2009, dated 2015).

For this assay, the target named is human P2X3 receptor (Homo sapiens (Human), UniProt P56373). Description: P2X3 receptor inhibition, ATP-evoked Fluo-3 fluorescence (FDSS 3000). The assay is classed as cell-based. Conditions: C6BU-1 cell transfected with human P2X3 receptor gene.

SMILES strings stand for the structures.

Sequence of human P2X3 receptor (P56373 whole entry): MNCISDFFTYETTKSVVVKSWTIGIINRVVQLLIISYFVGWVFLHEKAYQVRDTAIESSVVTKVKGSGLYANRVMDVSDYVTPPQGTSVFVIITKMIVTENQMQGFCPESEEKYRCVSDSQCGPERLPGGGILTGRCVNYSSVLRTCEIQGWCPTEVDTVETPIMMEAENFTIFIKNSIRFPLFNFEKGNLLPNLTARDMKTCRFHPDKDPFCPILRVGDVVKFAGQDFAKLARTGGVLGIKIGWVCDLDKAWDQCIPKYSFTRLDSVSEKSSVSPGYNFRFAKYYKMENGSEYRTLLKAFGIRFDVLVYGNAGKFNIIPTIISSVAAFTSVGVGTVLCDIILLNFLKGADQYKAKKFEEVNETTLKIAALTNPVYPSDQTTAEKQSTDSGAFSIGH

The IC50 is the point on the concentration scale where inhibition reaches its midpoint. A low value points to greater potency. `CC(C)Cn1ccc2cc(/N=c3\[nH]c(=O)n(CC(C)(C)C(=O)O)c(=O)n3Cc3ccc(Cl)cc3)ccc21` [I-508] registered an IC50 of 511 nM.
For `Cc1ccc(Cn2c(Nc3ccc(OC(C)C)cc3)nc(=O)n(C(C)C)c2=O)cc1[N+](=O)[O-]` [I-218], the IC50 was found to be 505 nM.
The result for `COC(=O)[C@H](C)Cn1c(=O)[nH]/c(=N\c2ccc(OC(C)C)cc2)n(Cc2ccc(Cl)cc2)c1=O` [I-479] reads 7 nM; that for `COC(=O)CCn1c(=O)[nH]/c(=N\c2ccc(OC(C)C)c(F)c2)n(Cc2ccc(C)cc2)c1=O` [I-409], 12 nM.
In the case of `COC(=O)C(C)(C)Cn1c(=O)[nH]/c(=N\c2ccc(OC(C)C)c(Cl)c2)n(CC2CCCCCC2)c1=O` [I-549], half-maximal inhibition (IC50) required 19 nM.
The result for `Cc1cc2cc(/N=c3\[nH]c(=O)n(CC(C)(C)C(=O)O)c(=O)n3Cc3ccc(Cl)cc3)ccc2o1` [I-491] reads 27 nM; that for `Cc1nc2ccc(/N=c3\[nH]c(=O)n(CC(C)(C)C(=O)O)c(=O)n3Cc3ccc(Cl)cc3)cc2o1` [I-496], 125 nM.
The compound `COC(=O)C(C)(C)Cn1c(=O)[nH]/c(=N\c2ccc(CN(C)C)c(Cl)c2)n(Cc2ccc(Cl)cc2)c1=O` [I-490] displayed an IC50 of 46 nM.
Consider `CC(C)Oc1ccc(/N=c2\[nH]c(=O)n([C@@H](C)CC(=O)O)c(=O)n2Cc2ccc(Cl)cc2)cc1F` [I-527], for which the IC50 was found to be 33 nM. The IC50 values of the last two compounds are within 1.5-fold of each other.
On to `CCOc1ccc(/N=c2\[nH]c(=O)n(C[C@@H](C)C(=O)O)c(=O)n2Cc2ccc(Cl)cc2)cc1Cl` [I-487], for which inhibition was half-maximal at 27 nM (IC50).
`CC(C)(Cn1c(=O)[nH]/c(=N\c2ccc(O)c(Cl)c2)n(Cc2ccc(Cl)cc2)c1=O)C(=O)O` [I-429] yielded an IC50 of 779 nM. This IC50 lies about 29-fold higher than the previous one.
The result for `CCCSc1ccc(Nc2nc(=O)n(CCO)c(=O)n2Cc2ccc(Cl)cc2)cc1` [I-379] reads 330 nM.
On to `CC(C)Oc1ccc(Nc2nc(=O)n(CC(C)(C)CO)c(=O)n2Cc2ccc(Cl)cc2)cc1F` [I-332], for which the IC50 turned out to be 8 nM. This IC50 lies about 41-fold lower than the previous one.
For the compound `Cc1cc(/N=c2\[nH]c(=O)n(CCCC(=O)O)c(=O)n2Cc2ccc(Cl)cc2)ccc1OC(C)C` [I-503], the midpoint of inhibition, the IC50, lay at 50 nM.
In the case of `COC(=O)C(C)(C)Cn1c(=O)[nH]/c(=N\c2ccc(O)c(Cl)c2)n(Cc2ccc(Cl)cc2)c1=O` [I-426], the IC50 worked out at 211 nM. Against the preceding compound, the IC50 is about 4.2-fold higher.
Regarding `CCn1c(=O)nc(Nc2cccc(C(F)(F)F)c2)n(Cc2ccc(F)cc2)c1=O` [I-138], it took 619 nM to reach half-maximal inhibition (IC50).
As for `COC(=O)C(C)(C)Cn1c(=O)[nH]/c(=N\c2ccc(C(=O)C(C)(C)C)cc2)n(Cc2ccc(Cl)cc2)c1=O` [I-402], the figure is 443 nM; as for `CC(C)Oc1ccc(/N=c2\[nH]c(=O)n(CC(=O)NCC(=O)O)c(=O)n2Cc2ccc(Cl)cc2)cc1F` [I-400], 44 nM.
Compound `CCn1ccc2cc(/N=c3\[nH]c(=O)n(CC(C)(C)C(=O)OC)c(=O)n3Cc3ccc(Cl)cc3)ccc21` [I-492] yielded an IC50 of 102 nM.
In turn, `Cc1ccc(Cn2c(Nc3ccc(OC(C)C)cc3)nc(=O)n(C(C)C)c2=O)cc1F` [I-217] had an IC50 of 268 nM. Against the preceding compound, the IC50 is about 2.6-fold higher.
`CC(C)Oc1ccc(Nc2nc(=O)n(CCCN)c(=O)n2Cc2ccc(Cl)cc2)cc1F` [I-317]: half-maximal inhibition (IC50) was put at 137 nM.
As to `CC(C)(Cn1c(=O)[nH]/c(=N\c2ccc(Cl)c(Cl)c2)n(Cc2ccc(Cl)cc2)c1=O)C(=O)O` [I-477], the IC50 was 56 nM.
For the compound `CCOc1ccc(/N=c2\[nH]c(=O)n(C[C@@H](C)C(=O)OC)c(=O)n2Cc2ccc(Cl)cc2)cc1C` [I-481], the IC50 worked out at 12 nM.
As for `O=c1nc(Nc2ccc(Cl)c(Cl)c2)n(Cc2ccc(Cl)cc2)c(=O)n1CCO` [I-373], the figure is 185 nM; as for `CC(Nc1nc(=O)n(C(C)C)c(=O)n1Cc1ccc(F)cc1)c1ccc(Cl)cc1` (stereo not shown) [I-223], 909 nM.
Compound `COC(=O)[C@@H](C)Cn1c(=O)[nH]/c(=N\c2ccc3oc(C)cc3c2)n(Cc2ccc(Cl)cc2)c1=O` [I-534] gave an IC50 of 18 nM.
`CC(C)Oc1ccc(/N=c2\[nH]c(=O)n(CCC(C)(C)C(=O)OCc3ccccc3)c(=O)n2Cc2ccc(Cl)cc2)cc1Cl` [I-407] returned an IC50 of 27 nM. Against the preceding compound, the IC50 is about 1.5-fold higher.
Take `CC(C)Oc1ccc(/N=c2\[nH]c(=O)n(Cc3ccccc3C(=O)O)c(=O)n2Cc2ccc(Cl)cc2)cc1F` [I-459]: the IC50 is 39 nM.
The result for `COC(=O)C(C)(C)Cn1c(=O)[nH]/c(=N\c2ccc3nc(C)oc3c2)n(Cc2ccc(Cl)cc2)c1=O` [I-494] reads 34 nM; that for `COC(=O)C(C)(C)Cn1c(=O)[nH]/c(=N\c2ccc(OC(C)C)c(Cl)c2)n(CC2CCCC2)c1=O` [I-550], 33 nM; that for `COC(=O)C(C)(C)Cn1c(=O)[nH]/c(=N\c2cccc(OC(F)F)c2)n(Cc2ccc(Cl)cc2)c1=O` [I-443], 207 nM.
For `CN(C)Cc1ccc(/N=c2\[nH]c(=O)n(CC(C)(C)C(=O)O)c(=O)n2Cc2ccc(Cl)cc2)cc1Cl` [I-495], the IC50 worked out at 125 nM.
For the compound `CCn1ccc2cc(/N=c3\[nH]c(=O)n(CC(C)(C)C(=O)O)c(=O)n3Cc3ccc(Cl)cc3)ccc21` [I-493], the IC50 amounted to 952 nM.
Turning to `CC(C)Oc1ccc(Nc2nc(=O)n(CC(=O)NCCO)c(=O)n2Cc2ccc(Cl)cc2)cc1F` [I-353], the midpoint of inhibition, the IC50, lay at 18 nM.
For `O=c1nc(Nc2ccc(F)c(F)c2)n(Cc2ccc(Cl)cc2)c(=O)n1CCO` [I-316], the IC50 worked out at 712 nM.
In turn, `CC(C)Oc1ccc(Nc2nc(=O)n(C(F)F)c(=O)n2Cc2ccc(Cl)cc2)cc1F` [I-310] had an IC50 of 389 nM.
Compound `CCOC(=O)C1(Cn2c(=O)[nH]/c(=N\c3ccc(OC(C)C)c(Cl)c3)n(Cc3ccc(Cl)cc3)c2=O)CC1` [I-423] showed an IC50 of 4 nM.
As for `CC(C)Oc1ccc(Nc2nc(=O)n(CCC(=O)N(C)C)c(=O)n2Cc2ccc(Cl)cc2)cc1F` [I-297], the figure is 45 nM; as for `CC(C)Oc1ccc(Nc2nc(=O)n(CCN3CCOCC3)c(=O)n2Cc2ccc(Cl)cc2)cc1F` [I-281], 12 nM.
The compound `Cc1ccc(Cn2c(=O)n(CC(=O)NC3(C(=O)O)CC3)c(=O)[nH]/c2=N\c2ccc(OC(C)C)c(F)c2)cc1` [I-419] had an IC50 of 71 nM. This IC50 lies about 5.9-fold higher than the previous one.
Take `COC(=O)C(C)(C)Cn1c(=O)[nH]/c(=N\c2ccc3[nH]ccc3c2)n(Cc2ccc(Cl)cc2)c1=O` [I-470]: half-maximal inhibition (IC50) required 80 nM.
As for `Cc1cc(/N=c2\[nH]c(=O)n(C[C@H](C)C(=O)O)c(=O)n2Cc2ccc(Cl)cc2)ccc1OC(C)C` [I-538], half-maximal inhibition (IC50) required 16 nM.
`CCOc1ccc(Nc2nc(=O)n(CCO)c(=O)n2Cc2ccc(Cl)cc2)cc1` [I-307] displayed an IC50 of 250 nM. This IC50 lies about 16-fold higher than the previous one.
The result for `CCOc1nc(=O)n(Cc2ccc(Cl)cc2)/c(=N/c2ccc(OC(C)C)c(Cl)c2)[nH]1` [II-014] reads 254 nM.
With `CSc1cccc(Nc2nc(=O)n(C(C)C)c(=O)n2Cc2ccc(F)cc2)c1` [I-130], the IC50 stood at 953 nM. Compared with the last compound, the IC50 is about 3.8-fold higher.
The result for `CC(C)Oc1ccc(Nc2nc(=O)n(CCO)c(=O)n2Cc2ccc(F)cc2)cc1F` [I-333] reads 192 nM; that for `CC(C)Oc1ccc(Nc2nc(OCCO)nc(=O)n2Cc2ccc(Cl)cc2)cc1F` [II-002], 79 nM; that for `CCOC(=O)CCn1c(=O)nc(Nc2ccc(OC(C)C)c(Cl)c2)n(CC2CCCCC2)c1=O` [I-380], 34 nM.
In the case of `CC(C)Oc1ccc(/N=c2\[nH]c(=O)n(CC(=O)NC(CO)CO)c(=O)n2Cc2ccc(Cl)cc2)cc1F` [I-398], the IC50 was 7 nM.
Regarding `CC(C)Cc1ccc(Nc2nc(=O)n(CCO)c(=O)n2Cc2ccc(Cl)cc2)cc1` [I-328], the IC50 is 124 nM. This IC50 lies about 18-fold higher than the previous one.
As to `COc1cc(Cl)ccc1Cn1c(Nc2ccc(OC(C)C)c(F)c2)nc(=O)n(C(C)C)c1=O` [I-270], half-maximal inhibition (IC50) required 271 nM.
The result for `CC(C)n1c(=O)nc(Nc2ccc(OC3CCOCC3)c(Cl)c2)n(Cc2ccc(Cl)cc2)c1=O` [I-239] reads 116 nM; that for `COC(=O)[C@@H](C)Cn1c(=O)nc(Nc2ccc(OC(C)C)cc2)n(Cc2ccc(Cl)cc2)c1=O` [I-529], 22 nM.
With `Cc1ccc(Cn2c(Nc3cccc(C(F)(F)F)c3)nc(=O)n(C(C)C)c2=O)cc1` [I-021], the 50% inhibitory concentration (IC50) came out at 197 nM.
On to `Cc1ccc(Cn2c(=O)n(C[C@H](C)C(=O)O)c(=O)[nH]/c2=N\c2ccc(OC(C)C)c(Cl)c2)cc1` [I-518], for which half-maximal inhibition (IC50) required 7 nM. This IC50 lies about 28-fold lower than the previous one.
`CC(C)n1c(=O)nc(Nc2cccc(C(F)(F)F)c2)n(Cc2ccc(Cl)cn2)c1=O` [I-162] had an IC50 of 379 nM. This IC50 is about 54-fold higher than that of the compound before.
`COc1ccc(/N=c2\[nH]c(=O)n(CC(C)(C)C(=O)O)c(=O)n2Cc2ccc(Cl)cc2)cc1C` [I-447] had an IC50 of 279 nM.
In turn, `N#CCOc1ccc(Nc2nc(=O)n(CCO)c(=O)n2Cc2ccc(Cl)cc2)cc1` [I-330] yielded an IC50 of 594 nM.
`COC(=O)[C@@H](C)Cn1c(=O)[nH]/c(=N\c2ccc(OC(C)C)c(C)c2)n(CC2CCCCC2)c1=O` [I-555] had an IC50 of 13 nM.
As to `Cc1ccc(Cn2c(=O)n(CC(=O)N[C@H](C)C(=O)O)c(=O)[nH]/c2=N\c2ccc(OC(C)C)c(F)c2)cc1` [I-417], 35 nM corresponded to half-maximal inhibition (IC50).
The result for `CC(C)Oc1ccc(/N=c2\[nH]c(=O)n(Cc3cccc(C(=O)O)c3)c(=O)n2Cc2ccc(Cl)cc2)cc1F` [I-451] reads 16 nM; that for `CC(C)Oc1ccc(Nc2nc(=O)n(CCNC(=O)NCC(=O)O)c(=O)n2Cc2ccc(Cl)cc2)cc1F` [I-392], 38 nM; that for `CC(C)n1c(=O)nc(Nc2ccc(C#N)cc2)n(Cc2ccc(Cl)cc2)c1=O` [I-372], 964 nM.
In the case of `CC(C)Oc1ccc(/N=c2\[nH]c(=O)n([C@H](C)CC(=O)O)c(=O)n2Cc2ccc(Cl)cc2)cc1Cl` [I-561], it took 8 nM to reach half-maximal inhibition (IC50).
In turn, `CC(C)Oc1ccc(Nc2nc(=O)n(CCNC(=O)N(C)C)c(=O)n2Cc2ccc(Cl)cc2)cc1F` [I-388] showed a concentration for half-maximal inhibition (IC50) of 36 nM.
Turning to `COC(=O)C[C@@H](C)n1c(=O)[nH]/c(=N\c2ccc(OC(C)C)c(Cl)c2)n(Cc2ccc(Cl)cc2)c1=O` [I-556], the IC50 came to 5 nM.
Take `CC(C)Oc1ccc(Nc2nc(=O)n(C(C)C)c(=O)n2Cc2ccc(F)cc2)cc1` [I-133]: the IC50 came out at 339 nM.
For `CC(C)Oc1ccc(Nc2nc(=O)n(CCN3CCCCC3)c(=O)n2Cc2ccc(Cl)cc2)cc1F` [I-282], the IC50 was 27 nM.
For the compound `CC(C)(Cn1c(=O)[nH]/c(=N\c2cccc(C(F)(F)F)c2)n(Cc2ccc(Cl)cc2)c1=O)C(=O)O` [I-476], the midpoint of inhibition, the IC50, lay at 35 nM. The IC50 values of the last two compounds are within 1.5-fold of each other.
`CC(C)Oc1ccc(/N=c2\[nH]c(=O)n(CCC(C)(C)C(=O)O)c(=O)n2Cc2ccc(Cl)cc2)cc1F` [I-420] returned an IC50 of 53 nM. This IC50 is about 1.5-fold higher than that of the compound before.
